One data set concerns Aβ40. Briefly: Aβ40 content in culture supernatant of HEK293APP/sw overexpressing cells (ELISA kit). Format: cell-based. To be noted: compound 400 μM, 24 hours, adjusted by total protein concentration, blank control 127.81. How it is done: (§1) BCA Protein Assay Kit was purchased from Beyotime, Aβ40 and Aβ42 detection kits were purchased from Wako, and cell culture related reagents were purchased from Gibco.
(§2) HEK293APP/sw overexpressing cells were cultured in DMEM medium containing 10% FBS, 100 μg/mL G418 (Geneticin) and 1×Penicillin-Streptomycin in 48-well plates. A 4 mM compound stock solution (prepared by dissolving the compound in DMEM culture medium) was filtered through a 0.22 μm sterile filter and stored at −20° C. for subsequent use. At 70% cell density, 40 μL of the compound test solution was added to each well to reach a final concentration of 400 μM, and the plate was incubated for 24 hours.
(§3) The supernatant of the culture medium was collected. The BCA reagent was added to a part of the supernatant, after incubating at room temperature for 30 min, the absorbance value (i.e., OD value) of each well was determined by a microplate reader at 570 nm. The total protein concentration was calculated according to a protein standard curve. Meanwhile, the other part of the supernatant (100 μL) was added to a coated 96-well plate and incubated overnight at 4° C., after the solution was removed and the reagents were washed, HRP (horseradish peroxidase)-labeled antibody was added and incubated at 4° C. for 2 hours. After the reagents were removed and washed, a TMB chromogenic solution was added, the plate was incubated at room temperature for 30 min, and then a stop solution was added to stop the reaction. The absorbance value (i.e., OD value) of each well was measured by a microplate reader at 450 nm. The concentrations of Aβ40 and Aβ42 were calculated according to the standard curves of Aβ40 and Aβ42, respectively. In the end, the concentrations of Aβ40 and Aβ42 were adjusted by the total protein concentration, so as to obtain the final concentration.
(In general: In an ELISA, binding on a coated surface is turned into a signal by an enzyme label.)

Another data set relates to Aβ42. Briefly: Aβ42 content in culture supernatant of HEK293APP/sw overexpressing cells (ELISA kit). In kind it is cell-based. The settings on record: compound 400 μM, 24 hours, adjusted by total protein concentration, blank control 11.08. How it is done: as §1, §2, §3
In another data set the test system is APP/PSi 2×Tg mice. Briefly: Water maze behavior test. Format: in vivo. The settings on record: 200 mg/kg oral gavage once a day, 8 weeks; for The number of crossing the platform: test day 6, model group 0.9 ± 0.6; for Time in the target quadrant: test day 6, model group 12.8 ± 2.9, in s. From the text: Rodents in water have a strong incentive to escape from the water environment, and can escape from the water environment in the fastest and most direct way. The process of learning to escape from the water environment reflects the learning ability of the animals. Spatial positioning according to the surrounding environment and purposefully swimming to a safe place in the water (such as a platform) can reflect the spatial learning and memory ability of the animals.
The test animals were APP/PSi 2×Tg mice (C57BL/6 wild-type mice as the blank control). Mice of 6-8 months old, weighing 20-40 g, were purchased from The Jackson laboratory.
APP/PSi mice are APP/PSi di-transgenic Alzheimer's disease (2×Tg-AD) model mice, and the appearance of deposition of Aβ is earlier than the pathological changes of tau protein for several months, which can more truly simulate the clinical process and pathological changes of Alzheimer's disease.
Preparation of 0.7% CMC-Na: 0.7 g CMC-Na was added with a proper amount of water, heated for dissolution, left for cooling to room temperature, diluted to 100 mL, and stored at 4° C.
Preparation of BTMP: 100 mg of BTMP was added to 10 mL of 0.7% CMC-Na to prepare a 10 mg/mL suspension for use.
Preparation of test compound and comparative compound 1: 100 mg of the compound to be tested was weighted and added to 10 mL of 0.7% CMC-Na to prepare a 10 mg/mL suspension for use.
The laboratory mice were randomly divided into groups (9 or 10 mice per group). Mice in each group were administrated at a dosage of 0.2 mL/10 g body weight by oral gavage once a day for eight weeks.
The mice in the blank control group, model group and test group were orally administrated for 8 consecutive weeks according to the above administration dosage/specification. The water maze training and test were started in the last week of administration. The water maze training and test lasted for six days, with a training period of five days and a testing period of one day. In addition, during the training and testing period of water maze (6 days in total), the indoor conditions such as lighting etc. were kept consistent, the room was kept quiet, and the interference from the environment and personnel was excluded.
2.1. Preparation before the test: a proper amount of water was put into the water maze pool with the water temperature being kept at 22±3° C. The platform was placed in a fixed position (target quadrant) and 1 cm below the water surface, and titanium dioxide was added until the water became white, so that the platform could not be seen clearly.
2.2. Training period (days 1 to 5): on each day, before the first quadrant training, each mouse was placed on the platform for 15 s (to increase the mice's sense of security on the platform), and then the mouse was put into the pool (with its head facing the pool wall) from the quadrant where the platform located, and the swimming time was set as 60 s. If the mouse found the platform within 60 s and stayed for 5 s, it was regarded as the platform being found successfully. If the mouse could not find the platform, then the time was recorded as 60 s. The mouse was guided to the platform and stayed for 20 s, the mouse was then taken out, and the quadrant training for this mouse was ended.
After the first quadrant training, the mouse was trained in the remaining three quadrants sequentially, where it is not necessary to place the mouse on the platform for 15 s before training. The training of each mouse in every two quadrants was conducted at an interval of 10-15 minute. In this way, the training was performed continuously for 5 days.
2.3. Testing period (day 6): 24 hours after the last training, the platform was removed, and the mouse was dropped at the position opposite to the quadrant where the platform previously located (i.e., the position furthest away from the platform). […]

Data set [1] in a line: Pharmacokinetic study, brain distribution test (TM in brain and whole blood). In kind it is in vivo, SD rats. To be noted: single gavage to rats, trapezoidal method, calculated after deducting the concentration at time zero. How it is done:
The SD rats used in this test were purchased from Zhejiang Charles rive Laboratory Animal Co., Ltd. Both male and female rats of SPF grade weighting about 250 g were used.
Preparation of the test article: a proper amount of test article was weighed and ground as fine powder in a mortar. A certain amount of the vehicle was added to a proper container, and then the ground test article was added to the container under magnetic stirring. The mixture was stirred until the appearance is uniform.
The male SD rats were divided into three groups (16 rats in each group) (4 animals were sacrificed at 4 time points). […] The animals were sacrificed at 5 min, 1 h, 3 h, and 9 h after the administration. The brain was taken out immediately after sacrifice, rinsed with ice-cold water and rinsed. 50 mg of the brain tissue was weighed, added to 0.45 mL of 100 mM dipotassium hydrogen phosphate buffer (pH=5.0) and homogenized. Blood samples were taken simultaneously and anticoagulated with EDTA. After collection, blood samples were placed on ice. 150 μL of whole blood was taken and 150 μL of 5.2% perchloric acid was added to determine TM. Another 4 animals were gavage administered with normal saline for the determination of endogenous TM concentration. All samples were frozen and stored in a −80° C. refrigerator.
The concentrations of TM and TDP in the samples were determined by HPLC-FLD.
The non-compartment model of the DAS software was used to calculate the pharmacokinetic parameters of TM and TDP in blood of rats after administration. The concentration of TM in the brain tissue after the drug administration in rats was measured, and the mean value and standard deviation were calculated. The area under the drug-time curve AUC was calculated using the trapezoidal method.

Setting [2] is: test day 6, model group 45.0 ± 8.8, 200 mg/kg.

With `C/C(=C(\CCOP(=O)(O)O)SC(=O)c1ccoc1)N(C=O)Cc1cnc(C)nc1N` [Compound 15, (Z)—S-(2-(N-((4-amino-2-methylpyrimidin-5-yl)methyl)formamido)-5-(phosphonooxy)pent-2-en-3-yl) furan-3-carbothioate], in the data set with Aβ40, the “The content of Aβ40” value was found to be 37.88 pmol/L. Besides, the “The content of Aβ42” value in the data set on Aβ42 is on record as 10.52 pmol/L.

For `COc1ccc2oc(C(=O)S/C(CCOP(=O)(O)O)=C(/C)N(C=O)Cc3cnc(C)nc3N)cc2c1` [Compound 8, (Z)—S-(2-(N-((4-amino-2-methylpyrimidin-5-yl)methyl)formamido)-5-(phosphonooxy)pent-2-en-3-yl) 5-methoxybenzofuran-2-carbothioate], in the data set with Aβ40, the “The content of Aβ40” value is reported as 60.96 pmol/L. Besides, in the data set with Aβ42, the “The content of Aβ42” value was determined as 2.31 pmol/L.

Regarding `C/C(=C(\CCOP(=O)(O)O)SC(=O)c1ccccc1)N(C=O)Cc1cnc(C)nc1N` [BTMP, benfotiamine, reference compound], in the data set on APP/PSi 2×Tg mice, the “The number of crossing the platform” value is listed as 2.1 ± 0.6 and the “Time in the target quadrant” value was found to be 18.0 ± 3.5. This compound also returned a Latency period with APP/PSi 2×Tg mice (setting [2]) of 27.3 ± 1.6 s. Further, the “AUC of TM in the brain” value in data set [1] is 739.9 ng·h/g.

On to `C/C(=C(\CCOP(=O)(O)O)SC(=O)c1cc2ccccc2o1)N(C=O)Cc1cnc(C)nc1N` [Compound 13, (Z)—S-(2-(N-((4-amino-2-methylpyrimidin-5-yl)methyl)formamido)-5-(phosphonooxy)pent-2-en-3-yl) benzofuran-2-carbothioate], for which the “The content of Aβ40” value in the data set with Aβ40 is on record as 43.76 pmol/L. Also, the “The content of Aβ42” value in the data set on Aβ42 turned out to be 7.21 pmol/L.

`C/C(=C(\CCOP(=O)(O)O)SC(=O)OCCc1ccccc1)N(C=O)Cc1cnc(C)nc1N` [Compound 5, (Z)—S-(2-(N-((4-amino-2-methylpyrimidin-5-yl)methyl)formamido)-5-(phosphonooxy)pent-2-en-3-yl) O-phenethyl carbonothioate]: in the data set with Aβ40, the “The content of Aβ40” value amounted to 48.94 pmol/L. For the same compound, in the data set with Aβ42, the “The content of Aβ42” value worked out at 4.92 pmol/L. Moreover, in the data set on APP/PSi 2×Tg mice, the “The number of crossing the platform” value is given as 2.2 ± 0.7 and the “Time in the target quadrant” value stood at 17.7 ± 2.6. In the data set on APP/PSi 2×Tg mice (test day 6, model group 45.0 ± 8.8), this compound had a Latency period of 25.0 ± 2.2 s.

Take `C/C(=C(\CCOP(=O)(O)O)SC(=O)C(C)C)N(C=O)Cc1cnc(C)nc1N` [Comparative compound 1, reference compound]: in the data set on APP/PSi 2×Tg mice, the “The number of crossing the platform” value was determined as 2.1 ± 0.6 and the “Time in the target quadrant” value amounted to 18.1 ± 2.8. Further, the Latency period in the data set with APP/PSi 2×Tg mice (setting [2]) stood at 27.0 ± 1.3 s.

As to `CCCCC(CC)C(=O)S/C(CCOP(=O)(O)O)=C(/C)N(C=O)Cc1cnc(C)nc1N` (stereo not drawn) [Comparative compound 2, reference compound], in data set [1], the “AUC of TM in the brain” value was 555.9 ng·h/g.

In the case of `C/C(=C(\CCOP(=O)(O)O)SC(=O)c1ccc(Cl)s1)N(C=O)Cc1cnc(C)nc1N` [Compound 7, (Z)—S-(2-(N-((4-amino-2-methylpyrimidin-5-yl)methyl)formamido)-5-(phosphonooxy)pent-2-en-3-yl) 5-chlorothiophene-2-carbothioate], the “The content of Aβ40” value in the data set on Aβ40 was found to be 35.93 pmol/L. Further, the “The content of Aβ42” value in the data set with Aβ42 is 5.03 pmol/L.
